Results: patent US12662476B2, “Herbicidal thiazole compounds” (SYNGENTA CROP PROTECTION AG, priority 2019, dated 2026)

Experiments:
Format in all cases: in vivo
Setaria faberi (SETFA) [1] = assay: Post-emergence herbicidal glasshouse test; settings: sprayed after 8 days cultivation, 250 g/ha, evaluated after 13 days, five-point scale
Protocol: (§1) Seeds of a variety of test species are sown in standard soil in pots Amaranthus retoflexus (AMARE), Echinochloa crus-galli (ECHCG), Setaria faberi (SETFA)). After cultivation for one day (pre-emergence) or after 8 days cultivation (post-emergence) under controlled conditions in a glasshouse (at 24/16° C., day/night; 14 hours light; 65% humidity), the plants are sprayed with an aqueous spray solution derived from the formulation of the technical active ingredient in acetone/water (50:50) solution containing 0.5% Tween™ 20 (polyoxyethylene sorbitan monolaurate, CAS RN 9005-64-5). Compounds are applied at 250 g/ha unless otherwise stated. The test plants are then grown in a glasshouse under controlled conditions in a glasshouse (at 24/16° C., day/night; 14 hours light; 65% humidity) and watered twice daily. After 13 days for pre- and post-emergence, the test is evaluated for the percentage damage caused to the plant. The biological activities are shown in the following table on a five-point scale (5=81-100%; 4=61-80%; 3=41-60%; 2=21-40%; 1=0-20%).

[2] = test system: Echinochloa crus-galli (ECHCG); assay: Post-emergence herbicidal glasshouse test; settings: sprayed after 8 days cultivation, 250 g/ha, evaluated after 13 days, five-point scale
Protocol: as §1

[3] = test system: Amaranthus retoflexus (AMARE); assay: Post-emergence herbicidal glasshouse test; settings: sprayed after 8 days cultivation, 250 g/ha, evaluated after 13 days, five-point scale
Protocol: as §1

Setaria faberi (SETFA) [4] = assay: Pre-emergence herbicidal glasshouse test; settings: sprayed after one day cultivation, 250 g/ha, evaluated after 13 days, five-point scale
Protocol: as §1

[5] = test system: Echinochloa crus-galli (ECHCG); assay: Pre-emergence herbicidal glasshouse test; settings: sprayed after one day cultivation, 250 g/ha, evaluated after 13 days, five-point scale
Protocol: as §1

[6] = test system: Amaranthus retoflexus (AMARE); assay: Pre-emergence herbicidal glasshouse test; settings: sprayed after one day cultivation, 250 g/ha, evaluated after 13 days, five-point scale
Protocol: as §1

Compound | percentage damage caused to the plant, SETFA (Setaria faberi (SETFA) [1]) | percentage damage caused to the plant, ECHCG [2] | percentage damage caused to the plant, AMARE [3] | percentage damage caused to the plant, SETFA (Setaria faberi (SETFA) [4]) | percentage damage caused to the plant, ECHCG [5] | percentage damage caused to the plant, AMARE [6]
FC(F)c1cc(-c2c(Cl)cccc2Oc2ncc(Br)s2)on1 [Compound 1.025] | 5 (5=81-100%) | 5 (5=81-100%) | 5 (5=81-100%) | 5 (5=81-100%) | 5 (5=81-100%) | 5 (5=81-100%)
Fc1cccc(Oc2nc(C(F)F)c(Cl)s2)c1-c1cc(C(F)F)no1 [Compound 1.035] | 1 (1=0-20%) | 1 (1=0-20%) | 2 (2=21-40%) | 1 (1=0-20%) | 1 (1=0-20%) | 1 (1=0-20%)
FC(F)c1cc(-c2c(Cl)cccc2Oc2ncc(Cl)s2)on1 [Compound 1.022] | 5 (5=81-100%) | 5 (5=81-100%) | 5 (5=81-100%) | 5 (5=81-100%) | 5 (5=81-100%) | 5 (5=81-100%)
C=Cc1cnc(Oc2cccc(F)c2-c2cc(C(F)F)no2)s1 [Compound 1.002, 3-(difluoromethyl)-5-[2-fluoro-6-(5-vinylthiazol-2-yl)oxy-phenyl]isoxazole] | 4 (4=61-80%) | 4 (4=61-80%) | 2 (2=21-40%) | 2 (2=21-40%) | 4 (4=61-80%) | 1 (1=0-20%)
N#Cc1cccc(Oc2ncc(Br)s2)c1-c1cc(C(F)F)no1 [Compound 1.013] | 3 (3=41-60%) | 2 (2=21-40%) | 5 (5=81-100%) | 4 (4=61-80%) | 4 (4=61-80%) | 2 (2=21-40%)
FC(F)c1cc(-c2c(Cl)cccc2Oc2nc(Cl)c(Cl)s2)on1 [Compound 1.032] | 4 (4=61-80%) | 2 (2=21-40%) | 5 (5=81-100%) | 1 (1=0-20%) | 1 (1=0-20%) | 5 (5=81-100%)
Fc1cccc(Oc2nc(C(F)(F)F)cs2)c1-c1cc(C(F)F)no1 [Compound 1.033] | 4 (4=61-80%) | 4 (4=61-80%) | 4 (4=61-80%) | 5 (5=81-100%) | 4 (4=61-80%) | 5 (5=81-100%)
FC(F)c1cc(-c2c(Br)cccc2Oc2nc(C(F)(F)F)cs2)on1 [Compound 1.034] | 4 (4=61-80%) | 3 (3=41-60%) | 4 (4=61-80%) | 5 (5=81-100%) | 3 (3=41-60%) | 4 (4=61-80%)
Fc1cccc(Oc2nc(Cl)c(Cl)s2)c1-c1cc(C(F)F)no1 [Compound 1.029] | 2 (2=21-40%) | 1 (1=0-20%) | 5 (5=81-100%) | 2 (2=21-40%) | 1 (1=0-20%) | 5 (5=81-100%)
FC(F)c1cc(-c2c(Br)cccc2Oc2nc(Cl)c(Cl)s2)on1 [Compound 1.028] | 4 (4=61-80%) | 4 (4=61-80%) | 4 (4=61-80%) | 4 (4=61-80%) | 4 (4=61-80%) | 2 (2=21-40%)
FC(F)c1cc(-c2c(Br)cccc2Oc2ncc(C(F)F)s2)on1 [Compound 1.020] | 5 (5=81-100%) | 4 (4=61-80%) | 4 (4=61-80%) | 5 (5=81-100%) | 5 (5=81-100%) | 1 (1=0-20%)
Cc1cnc(Oc2cccc(F)c2-c2cc(C(F)F)no2)s1 [Compound 1.005, 3-(difluoromethyl)-5-[2-fluoro-6-(5-methylthiazol-2-yl)oxy-phenyl]isoxazole] | 4 (4=61-80%) | 4 (4=61-80%) | 4 (4=61-80%) | 4 (4=61-80%) | 3 (3=41-60%) | 5 (5=81-100%)
Fc1cccc(Oc2nc(C(F)F)cs2)c1-c1cc(C(F)F)no1 [Compound 1.009] | 2 (2=21-40%) | 2 (2=21-40%) | 4 (4=61-80%) | 5 (5=81-100%) | 3 (3=41-60%) | 4 (4=61-80%)
N#Cc1cccc(Oc2ncc(C(F)F)s2)c1-c1cc(C(F)F)no1 [Compound 1.014] | 4 (4=61-80%) | 3 (3=41-60%) | 3 (3=41-60%) | 5 (5=81-100%) | 5 (5=81-100%) | 3 (3=41-60%)
FC(F)c1cc(-c2c(Br)cccc2Oc2ncc(Br)s2)on1 [Compound 1.024] | 5 (5=81-100%) | 5 (5=81-100%) | 5 (5=81-100%) | 4 (4=61-80%) | 5 (5=81-100%) | 4 (4=61-80%)
N#Cc1cccc(Oc2ncc(Cl)s2)c1-c1cc(C(F)F)no1 [Compound 1.012] | 4 (4=61-80%) | 3 (3=41-60%) | 5 (5=81-100%) | 5 (5=81-100%) | 4 (4=61-80%) | 2 (2=21-40%)
Fc1cccc(Oc2ncc(C(F)F)s2)c1-c1cc(C(F)F)no1 [Compound 1.001, 3-(difluoromethyl)-5-[2-[5-(difluoromethyl)thiazol-2-yl]oxy-6-fluoro-phenyl]isoxazole] | 5 (5=81-100%) | 5 (5=81-100%) | 5 (5=81-100%) | 5 (5=81-100%) | 5 (5=81-100%) | 5 (5=81-100%)
Fc1cccc(Oc2nc(Br)cs2)c1-c1cc(C(F)F)no1 [Compound 1.007] | 5 (5=81-100%) | 4 (4=61-80%) | 5 (5=81-100%) | 5 (5=81-100%) | 3 (3=41-60%) | 5 (5=81-100%)
FC(F)c1cc(-c2c(Br)cccc2Oc2nc(C(F)F)c(Cl)s2)on1 [Compound 1.030] | 1 (1=0-20%) | 1 (1=0-20%) | 1 (1=0-20%) | 1 (1=0-20%) | 1 (1=0-20%) | 1 (1=0-20%)
Fc1cccc(Sc2ncc(Cl)s2)c1-c1cc(C(F)F)no1 [Compound 1.031, 5-[2-(5-chlorothiazol-2-yl)sulfanyl-6-fluoro-phenyl]-3-(difluoromethyl)isoxazole] | 3 (3=41-60%) | 2 (2=21-40%) | 4 (4=61-80%) | 2 (2=21-40%) | 2 (2=21-40%) | 3 (3=41-60%)
Fc1cccc(Oc2nccs2)c1-c1cc(C(F)F)no1 [Compound 1.003] | 2 (2=21-40%) | 1 (1=0-20%) | 2 (2=21-40%) | 2 (2=21-40%) | 2 (2=21-40%) | 5 (5=81-100%)
